Results from paper PMC5603267 (Cell metabolism, 2017).

Key:
[1] = target: acetyl-CoA carboxylase 1 (ACC1) (Homo sapiens, UniProt Q13085); test: purified ACC incubated with MK-4074, ATP, acetyl-CoA and NaH14CO3; type: biochemical
[2] = target: acetyl-CoA carboxylase 2 (ACC2) (Homo sapiens, UniProt O00763); test: as above; type: biochemical
Chain of acetyl-CoA carboxylase 2 (ACC2) (O00763 whole entry): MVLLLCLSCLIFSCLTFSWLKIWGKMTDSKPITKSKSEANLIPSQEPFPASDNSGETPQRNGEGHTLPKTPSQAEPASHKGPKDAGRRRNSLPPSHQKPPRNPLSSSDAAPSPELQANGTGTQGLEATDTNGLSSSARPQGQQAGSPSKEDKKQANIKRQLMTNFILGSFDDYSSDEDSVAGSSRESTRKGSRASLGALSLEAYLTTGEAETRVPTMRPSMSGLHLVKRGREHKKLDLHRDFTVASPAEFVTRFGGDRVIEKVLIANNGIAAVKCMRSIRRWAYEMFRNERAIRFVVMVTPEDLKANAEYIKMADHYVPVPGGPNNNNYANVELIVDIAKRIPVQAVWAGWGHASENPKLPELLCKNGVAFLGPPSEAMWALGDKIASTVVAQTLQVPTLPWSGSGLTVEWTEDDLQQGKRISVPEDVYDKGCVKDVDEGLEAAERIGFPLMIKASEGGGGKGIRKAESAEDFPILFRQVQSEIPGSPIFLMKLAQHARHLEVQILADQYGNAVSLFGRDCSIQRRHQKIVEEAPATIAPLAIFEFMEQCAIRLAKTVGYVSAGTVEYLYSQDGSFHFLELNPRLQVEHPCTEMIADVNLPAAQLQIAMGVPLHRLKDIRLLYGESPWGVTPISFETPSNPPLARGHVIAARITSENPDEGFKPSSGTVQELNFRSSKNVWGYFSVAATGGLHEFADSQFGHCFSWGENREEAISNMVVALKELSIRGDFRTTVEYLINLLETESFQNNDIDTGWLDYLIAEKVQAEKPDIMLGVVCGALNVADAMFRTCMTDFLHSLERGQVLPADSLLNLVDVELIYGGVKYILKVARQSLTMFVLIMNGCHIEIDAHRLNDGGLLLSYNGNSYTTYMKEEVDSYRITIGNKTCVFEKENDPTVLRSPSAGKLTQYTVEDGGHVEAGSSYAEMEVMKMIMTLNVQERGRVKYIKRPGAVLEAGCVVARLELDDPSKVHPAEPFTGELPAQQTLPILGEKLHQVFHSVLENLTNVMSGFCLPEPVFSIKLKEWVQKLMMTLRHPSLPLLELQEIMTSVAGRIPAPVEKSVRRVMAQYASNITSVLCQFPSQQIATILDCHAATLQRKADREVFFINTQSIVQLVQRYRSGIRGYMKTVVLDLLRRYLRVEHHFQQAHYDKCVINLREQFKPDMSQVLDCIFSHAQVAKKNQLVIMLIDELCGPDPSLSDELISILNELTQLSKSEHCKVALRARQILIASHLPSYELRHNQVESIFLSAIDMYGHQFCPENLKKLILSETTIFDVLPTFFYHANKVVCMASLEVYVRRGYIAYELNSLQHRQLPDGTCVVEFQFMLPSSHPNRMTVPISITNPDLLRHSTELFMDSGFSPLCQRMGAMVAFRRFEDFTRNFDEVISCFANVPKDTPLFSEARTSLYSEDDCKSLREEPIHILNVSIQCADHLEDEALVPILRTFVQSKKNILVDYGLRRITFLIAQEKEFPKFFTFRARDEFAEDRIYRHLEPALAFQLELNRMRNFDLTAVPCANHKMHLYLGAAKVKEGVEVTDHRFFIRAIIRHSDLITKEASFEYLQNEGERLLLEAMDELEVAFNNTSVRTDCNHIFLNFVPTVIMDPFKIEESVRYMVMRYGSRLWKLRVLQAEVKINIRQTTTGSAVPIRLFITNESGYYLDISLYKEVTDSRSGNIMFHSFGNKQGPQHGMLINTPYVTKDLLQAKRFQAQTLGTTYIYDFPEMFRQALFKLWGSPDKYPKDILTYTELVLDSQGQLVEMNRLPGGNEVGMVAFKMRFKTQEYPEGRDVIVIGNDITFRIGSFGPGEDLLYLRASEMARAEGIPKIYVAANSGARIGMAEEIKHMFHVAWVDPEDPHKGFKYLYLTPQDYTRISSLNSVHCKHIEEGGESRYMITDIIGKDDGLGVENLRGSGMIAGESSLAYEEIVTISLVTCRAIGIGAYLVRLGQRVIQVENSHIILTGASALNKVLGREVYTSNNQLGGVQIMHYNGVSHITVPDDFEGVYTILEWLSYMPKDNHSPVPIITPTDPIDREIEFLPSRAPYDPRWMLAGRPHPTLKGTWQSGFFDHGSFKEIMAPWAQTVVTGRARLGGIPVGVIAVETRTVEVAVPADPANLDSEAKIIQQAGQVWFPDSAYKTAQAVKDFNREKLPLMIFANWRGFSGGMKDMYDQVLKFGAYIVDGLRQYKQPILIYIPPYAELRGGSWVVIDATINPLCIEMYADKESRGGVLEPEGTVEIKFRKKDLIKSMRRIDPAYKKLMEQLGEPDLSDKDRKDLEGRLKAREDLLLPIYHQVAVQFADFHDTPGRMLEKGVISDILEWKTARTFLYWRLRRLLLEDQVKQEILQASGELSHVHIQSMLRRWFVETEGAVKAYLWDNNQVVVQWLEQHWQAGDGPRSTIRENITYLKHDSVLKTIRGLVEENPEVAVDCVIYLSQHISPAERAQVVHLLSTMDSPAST

IC50 [1]: ~3 nM
IC50 [2]: ~3 nM
SMILES: COc1cc(C(=O)N2CCC3(CC2)CC(=O)c2cc(-c4cncc(C(=O)O)c4)ccc2O3)cc2c1c(C)cn2C1CC1 [MK-4074]
